Results from paper PMC10172927, “Maturation of the malarial phosphatidylserine decarboxylase is mediated by high affinity binding to anionic phospholipids” (The Journal of Biological Chemistry, 2023).

Target: T1, PkPSD proenzyme; MBP-His6-Δ34PkPSD(S308A) (Plasmodium knowlesi, UniProt B3L2V1, S308A)
T1 construct: gene PKH_072580
Experiment: biochemical

T1 sequence (B3L2V1 35-354 S308A): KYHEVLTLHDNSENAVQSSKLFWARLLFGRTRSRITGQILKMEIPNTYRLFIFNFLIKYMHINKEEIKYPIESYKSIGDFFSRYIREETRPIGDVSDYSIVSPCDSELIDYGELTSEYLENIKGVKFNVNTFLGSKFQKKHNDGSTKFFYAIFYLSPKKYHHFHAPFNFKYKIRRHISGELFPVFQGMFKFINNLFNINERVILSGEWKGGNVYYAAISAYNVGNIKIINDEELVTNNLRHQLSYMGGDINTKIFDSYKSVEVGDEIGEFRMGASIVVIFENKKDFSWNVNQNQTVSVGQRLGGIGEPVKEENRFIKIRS

Structure (SMILES) | Kd [nM]
CCCCCCCC/C=C\CCCCCCCC(=O)OC[C@H](COP(=O)(O)OCC(O)CO)OC(=O)CCCCCCC/C=C\CCCCCCCC (some centres unmarked) [DOPG] | 66.4
CCCCCCCC/C=C\CCCCCCCC(=O)OC[C@H](COP(=O)(O)OC[C@H](N)C(=O)O)OC(=O)CCCCCCC/C=C\CCCCCCCC [DOPS] | 80.4
